How the values were obtained:
[1] = target: T1, RAC-alpha serine/threonine-protein kinase (Homo sapiens, UniProt P31749); test: Inhibition of Akt1
[2] = Inhibition of PKA
[3] = Selectivity ratio of IC50 for PKA to IC50 for Akt1
[4] = target: T1, RAC-alpha serine/threonine-protein kinase; test: Inhibition of AKT1-mediated PRAS40 phosphorylation in human LNCaP cells; format: cell-based

T1 sequence (P31749 whole entry): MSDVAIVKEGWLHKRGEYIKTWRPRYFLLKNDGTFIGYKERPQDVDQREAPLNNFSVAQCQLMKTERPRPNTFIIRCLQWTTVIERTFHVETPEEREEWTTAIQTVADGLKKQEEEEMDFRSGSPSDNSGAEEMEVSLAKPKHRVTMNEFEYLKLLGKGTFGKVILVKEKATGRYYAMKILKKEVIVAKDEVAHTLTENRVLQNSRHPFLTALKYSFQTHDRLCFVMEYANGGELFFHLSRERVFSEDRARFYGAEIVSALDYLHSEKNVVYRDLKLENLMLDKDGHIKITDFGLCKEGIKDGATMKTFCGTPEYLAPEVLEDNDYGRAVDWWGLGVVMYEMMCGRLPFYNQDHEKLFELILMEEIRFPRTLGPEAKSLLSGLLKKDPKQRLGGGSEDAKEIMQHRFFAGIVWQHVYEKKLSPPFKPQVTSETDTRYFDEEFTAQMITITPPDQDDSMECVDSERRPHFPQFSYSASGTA

IC50 [1] [nM] | IC50 [2] [nM] | Ratio IC50 [3] | IC50 [4] [nM] | Structure (SMILES)
12 | 3400 | 280 | 740 | CCOCCN(C[C@@H](O)CN1CCCC2(CCN(c3ncncc3C3CC3)C2)C1)S(=O)(=O)c1c(C)cccc1C (some centres undefined)
 | 4700 |  | 2400 | CCOCCN(C[C@@H](O)CN1CCCC2(CCN(c3ncnc4ccccc34)C2)C1)S(=O)(=O)c1c(C)cccc1C (some centres undefined)
12 | 2200 | 180 | 470 | CCOCCN(C[C@@H](O)CN1CCCC2(CCN(c3ncnc(N)c3C3CC3)C2)C1)S(=O)(=O)c1c(C)cccc1C (mixture of isomers)
8 | 7800 | 970 | 2200 | Cc1cc(F)ccc1S(=O)(=O)NC[C@@H](O)CN1CCC[C@@]2(CCN(c3ncnc(N)c3C3CC3)C2)C1
2 | 67 | 28 | 180 | CCOCCN(C[C@@H](O)CN1CCCC2(CCN(c3ncnc4[nH]cc(C)c34)C2)C1)S(=O)(=O)c1c(C)cccc1C (some centres undefined)
 | 560 | 27 |  | CCOCCN(C[C@@H](O)CN1CCCC2(CCN(c3ncnc4[nH]nc(C)c34)C2)C1)S(=O)(=O)c1c(C)cccc1C (some centres undefined)
81 | > 10000 | > 120 | 14000 | Nc1ncnc(N2CC[C@@]3(CCCN(C[C@H](O)CNS(=O)(=O)c4ccccc4F)C3)C2)c1C1CC1
1100 | > 10000 | > 9 |  | Cc1ccncc1S(=O)(=O)NC[C@@H](O)CN1CCC[C@@]2(CCN(c3ncnc(N)c3C3CC3)C2)C1
4 | 3400 | 850 | 900 | Cc1cccc(C)c1S(=O)(=O)NC[C@@H](O)CN1CCC[C@@]2(CCN(c3ncnc(N)c3C3CC3)C2)C1
9 | 3900 | 430 | 690 | Cc1cccc(C)c1S(=O)(=O)N1CCC[C@H]1[C@@H](O)CN1CCC[C@@]2(CCN(c3ncnc(N)c3C3CC3)C2)C1
19 | 4700 | 250 | 2400 | Cc1cccc(C)c1S(=O)(=O)N1CCC[C@@H]1[C@@H](O)CN1CCC[C@@]2(CCN(c3ncnc(N)c3C3CC3)C2)C1
21 |  |  | 310 | CCOCCN(C[C@@H](O)CN1CCCC2(CCN(c3ncnc4n[nH]c(C)c34)C2)C1)S(=O)(=O)c1c(C)cccc1C (some centres undefined)
9 | 5000 | 560 | 1200 | Cc1ccccc1S(=O)(=O)NC[C@@H](O)CN1CCC[C@@]2(CCN(c3ncnc(N)c3C3CC3)C2)C1
9 | 8300 | 920 | 1900 | Nc1ncnc(N2CC[C@@]3(CCCN(C[C@H](O)CNS(=O)(=O)c4ccccc4Cl)C3)C2)c1C1CC1
3 | 1900 | 630 | 490 | Cc1noc(C)c1S(=O)(=O)NC[C@@H](O)CN1CCC[C@@]2(CCN(c3ncnc(N)c3C3CC3)C2)C1
17 | 9400 | 550 | 2000 | Nc1ncnc(N2CC[C@@]3(CCCN(C[C@H](O)CNS(=O)(=O)c4ccccc4Br)C3)C2)c1C1CC1
41 | 210 | 5 | 1200 | CCOCCN(C[C@@H](O)CN1CCCC2(CCN(c3ncnc4[nH]cc(C)c34)CC2)C1)S(=O)(=O)c1c(C)cccc1C
160 | > 10000 | > 63 | 18000 | Cc1ccc(S(=O)(=O)NC[C@@H](O)CN2CCC[C@@]3(CCN(c4ncnc(N)c4C4CC4)C3)C2)c(C)c1
250 | > 10000 | > 40 | 13000 | Cc1cccc(C)c1S(=O)(=O)N1CCC[C@H]1[C@H](O)CN1CCC[C@@]2(CCN(c3ncnc(N)c3C3CC3)C2)C1
